Laboratory results taken from ChEMBL document CHEMBL5335835, “Terpenes and Terpenoids Conjugated with BODIPYs: An Overview of Biological and Chemical Properties” (J Nat Prod, 2024).

Molecular target: T1, Alpha-tocopherol transfer protein (Homo sapiens, UniProt P49638)
T1 sequence (P49638 whole entry): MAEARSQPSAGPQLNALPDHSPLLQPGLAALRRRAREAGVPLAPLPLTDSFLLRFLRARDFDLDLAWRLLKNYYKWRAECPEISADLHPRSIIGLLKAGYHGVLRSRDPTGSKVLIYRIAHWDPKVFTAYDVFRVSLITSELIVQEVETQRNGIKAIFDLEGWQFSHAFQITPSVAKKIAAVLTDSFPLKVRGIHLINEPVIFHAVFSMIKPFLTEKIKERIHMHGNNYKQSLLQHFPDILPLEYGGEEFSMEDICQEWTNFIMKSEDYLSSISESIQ
Test: Binding affinity to human alpha-TTP assessed as dissociation constant incubated for 25 to 40 mins by fluorescence based assay

In the case of CC1=CC(C)=[N+]2C1=Cc1ccc(CCCCCCCC[C@]3(C)CCc4c(C)c(O)c(C)c(C)c4O3)n1[B-]2(F)F, the Kd is reported as 94 nM.
